Source: patent US7429658B2, “Synthesis of protected pyrrolobenzodiazepines” (Spirogen Limited, priority 2003, dated 2008)

Experiments:
[1] = target: T1, Carboxypeptidase G2 (CPG2) (Pseudomonas sp., UniProt P06621); assay: Carboxypeptidase G2 (CPG2) cleavage of prodrug to parent PBD imine, monitored by reversed phase HPLC; format: biochemical; details: 100 μM prodrug, CPG2 (1 unit), 100 mM Tris-HCl pH 7.3, 260 μM ZnCl2, 37° C.
T1 sequence (P06621 23-415): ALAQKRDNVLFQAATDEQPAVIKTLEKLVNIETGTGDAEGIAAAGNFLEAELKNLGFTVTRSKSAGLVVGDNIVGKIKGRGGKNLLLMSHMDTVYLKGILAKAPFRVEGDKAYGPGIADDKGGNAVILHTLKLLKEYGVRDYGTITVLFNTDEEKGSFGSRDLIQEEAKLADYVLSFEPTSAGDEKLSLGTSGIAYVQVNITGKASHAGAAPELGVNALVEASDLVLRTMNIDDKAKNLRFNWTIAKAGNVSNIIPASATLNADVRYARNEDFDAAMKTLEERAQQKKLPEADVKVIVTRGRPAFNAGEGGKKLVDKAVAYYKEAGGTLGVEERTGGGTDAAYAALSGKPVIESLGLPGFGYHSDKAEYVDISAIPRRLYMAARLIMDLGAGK
Experimental: An aliquot of a 10 mM stock solution of the carbamate monomer prodrug was diluted to 100 μM in Carboxypeptidase G2 (CPG2) assay buffer (100 mM Tris-HCl, pH 7.3; 260 μM ZnCl2). CPG2 (1 unit) was added and the reaction was incubated at 37° C. The reaction was monitored by reversed phase HPLC (C18 column, 5 μM particle size, 250 mm×4.6 mm; mobile phase 70% H2O/30% CH3CN/0.1% TFA; detection at 245 nM) with 20 μL aliquots being injected at 0, 10, 20, 30, 40, 50 and 60 min. The conversion of the prodrug to the parent imine 30 was complete in 60 minutes.
An aliquot of a 10 mM stock solution of the carbamate dimer prodrug was diluted to 100 μM in Carboxypeptidase G2 (CPG2) assay buffer (100 mM Tris-HCl, pH 7.3; 260 μM ZnCl2). CPG2 (1 unit) was added and the reaction was incubated at 37° C. The reaction was monitored by reversed phase HPLC (C18 column, 5 μM particle size, 250 mm×4.6 mm; mobile phase 70% H2O/30% CH3CN/0.1% TFA; detection at 245 nM) with 20 μL aliquots being injected at 0, 15, 30, 45, 60 and 75 min. The conversion of the prodrug to the parent imine 61 was complete in 75 min.

[2] = Photolytic deprotection of N-10 protected PBD (irradiation at 365 nM), monitored by reversed phase HPLC; format: physicochemical; details: 0.25 g in MeOH (10 mL) irradiated at 365 nM; HPLC at 1 h intervals against standard of parent PBD 30
Experimental: A solution of the N-10 protected PBD (0.25 g) in MeOH (10 mL was irradiated at 365 nM. The reaction was monitored by reversed phase HPLC (C18 column, 5 μM particle size, 250 mm×4.6 mm; mobile phase 70% H2O/30% CH3CN/0.1% TFA; detection at 245 nM) against a standard sample of the parent PBD 30. Aliquots of the reaction mixture (20 μL) were injected at 1 h intervals. The conversion to parent PBD was complete in 12 h.

## COc1cc2c(cc1OCCCCCOc1cc3c(cc1OC)C(=O)N1CCC[C@H]1[C@H](O)N3C(=O)OCc1ccc(OC(=O)N[C@@H](CCC(=O)O)C(=O)O)cc1)N(C(=O)OCc1ccc(OC(=O)N[C@@H](CCC(=O)O)C(=O)O)cc1)[C@@H](O)[C@@H]1CCCN1C2=O [Compound 68, 1,1′-[[Pentane-1,5-diyl]dioxy]bis[(11S,11aS)-10-[N-(4-(L-glutamylcarbonyloxy)benzyloxycarbonyl)]-11-hydroxy-7-methoxy-1,2,3,10,11,11a-hexahydro-5H-pyrrolo[2,1-c][1,4]benzodiazepine-5-one]]
[1]; HPLC aliquots every 15 min to 75 min
  conversion of the prodrug to the parent imine 61 complete in: ≤ 75 min

## COc1cc2c(cc1OC)N(C(=O)OCc1ccc(OC(=O)N[C@@H](CCC(=O)O)C(=O)O)cc1)[C@@H](O)[C@@H]1CCCN1C2=O [Compound 46, 2-[4-((11S,11aS)-7,8-Dimethoxy-11-hydroxy-5-oxo-1,2,3,10,11,11a-hexahydro-5H-pyrrolo[2,1-c][1,4]benzodiazepine-10-carbonyloxymethyl)-phenoxycarbonylamino]-pentanedioic acid]
[1]; HPLC aliquots every 10 min to 60 min
  conversion of the prodrug to the parent imine 30 complete in: ≤ 60 min

## COc1cc(COC(=O)N2c3cc(OC)c(OC)cc3C(=O)N3CCC[C@H]3[C@@H]2O)c([N+](=O)[O-])cc1OC [Compound 28, (11S,11aS)-7,8-Dimethoxy-11-hydroxy-5-oxo-1,2,3,10,11,11a-hexahydro-5H-pyrrolo[2,1-c][1,4]benzodiazepine-10-carboxylic acid 4,5-dimethoxy-2-nitro-benzyl ester]
[2]
  conversion to parent PBD complete in: ≤ 12 h
